Converted amounts (≈) assume the structure as drawn. Read-outs that look alike come from different tables or passages of the source.
Columns and labels:
[1] = system: B16-F10 (murine melanoma) cells; assay: in vitro cytotoxicity against B16-F10 (neutral red staining, 72 hours); type: cell-based; conditions: Mus musculus
Method: (§1) BU-3862T and diacetyl-, dihydro- and tetrahydro-BU-3862T were tested for in vitro cytotoxicity against several murine and human tumor cell lines and/or for in vivo antitumor activity in mice. […] B16-F10 (murine melanoma), P388 (murine leukemia), L1210 (murine leukemia) and Moser (human colorectal carcinoma) cells were grown to the logarithmic phase in enriched Eagle minimum essential medium (MEM) supplemented with fetal calf serum (FCS, 10%) and kanamycin (60 mcg/ml), and HCT-116 (human colon carcinoma) cells in Maccoy's 5A medium supplemented with FCS (10%), penicillin (100 u/ml) and streptomycin (100 mcg/ml), harvested and inoculated into wells of the 96- or 24-well tissue culture plate with test materials at the concentrations of 1.5×10^5, 1.2×10^4,1.2×10^4, 2.5×10^5 and 3.0×10^5 cells/ml, respectively. They were incubated at 37° C. in humidified atmosphere of 5% CO2 and 95% air for 72 hours. The cytotoxic activities against B16-F10, Moser and HCT-116 cells were colorimetrically determined at 540 nm after staining viable cells with 0.006% neutral red solution. On the other hand, the cytotoxic activities against P388 and L1210 cells were determined by counting the number of viable cells.

[2] = system: P388 (murine leukemia) cells; assay: in vitro cytotoxicity against P388 (viable cell count, 72 hours); type: cell-based; conditions: Mus musculus; P388, 72 hours
Method: as §1

[3] = system: L1210 (murine leukemia) cells; assay: in vitro cytotoxicity against L1210 (viable cell count, 72 hours); type: cell-based; conditions: Mus musculus; L1210, 72 hours
Method: as §1

[4] = system: HCT-116 (human colon carcinoma) cells; assay: in vitro cytotoxicity against HCT-116 (neutral red staining, 72 hours); type: cell-based
Method: as §1

[5] = system: Moser (human colorectal carcinoma) cells; assay: in vitro cytotoxicity against Moser (neutral red staining, 72 hours); type: cell-based
Method: as §1

[6] = system: DNA synthesis in B16-F10 melanoma cells; assay: inhibition of DNA synthesis in cultured B16-F10 melanoma cells; type: cell-based, murine
[7] = system: RNA synthesis in B16-F10 melanoma cells; assay: inhibition of RNA synthesis in cultured B16-F10 melanoma cells; type: cell-based, murine; conditions: Mus musculus, 14C-uridine incorporation, 4 hours + 60 min
[8] = system: protein synthesis in B16-F10 melanoma cells; assay: inhibition of protein synthesis in cultured B16-F10 melanoma cells; type: cell-based, murine
[9] = solubility; type: physicochemical
[10] = system: B16 melanoma; conditions: for T/C: Table 6, QD × 9; for inhibitory activity against experimental animal tumor systems: e.g. B16 melanoma in mice; for antitumor efficacy against B16 melanoma, in words: ip; for minimum effective dose relative to the parent compound: versus BU-3862T
Method: (§2) In vivo antitumor activities of BU-3862T and the diacetyl and dihydro derivatives were determined in tumor-bearing BDF1 or CDF1 mice. Male BDF1 mice were intraperitoneally inoculated with 0.5 ml of 10% melanotic melanoma B16 brei and female CDF1 mice were also intraperitoneally inoculated with 0.4 ml of diluted ascitic fluid containing 10^5 lymphoid leukemia L1210 cells or 10^6 lymphocytic leukemia P388 cells.

[11] = system: L1210 leukemia
Method: as §2

[12] = system: P388 leukemia; conditions: at the doses tested
Method: as §2

[13] = biological activity of BU-3862T derivatives
[14] = system: murine and human tumor cell lines
Method: as §1

[15] = B16-F10, 72 hours, read-out: IC50
[16] = HCT-116, 72 hours, read-out: IC50
[17] = Moser, 72 hours, read-out: IC50

Q: Which IC50 [1, 15] does the source give for `C=C(C)CC(NC(=O)[C@H](CO)NC(=O)CCCCC(C)C)C(=O)C1(CO)CO1` (some centres unmarked) [BU-3862T] here?
A: 0.0017 µg/mL (≈ 0.00427 µM)

Q: And the IC50 [2]?
A: 0.031 µg/mL (≈ 0.0778 µM)

Q: What about the IC50 [3] of the same compound?
A: 0.01 µg/mL (≈ 0.0251 µM)

Q: And the IC50 [4, 16]?
A: 0.0097 µg/mL (≈ 0.0243 µM)

Q: And the IC50 [5, 17]?
A: 0.016 µg/mL (≈ 0.0402 µM)

Q: And the “potency on DNA synthesis relative to that on RNA synthesis in terms of IC50 value” ([6]; DNA versus RNA synthesis)?
A: over 100 times

Q: What about the IC50 ([6]; Mus musculus, B16-F10, 3H-thymidine incorporation, 3.5 hours + 30 min) of the same compound?
A: 0.1 µg/mL

Q: What about the IC50 [7] of the same compound?
A: 11 µg/mL

Q: And the IC50 ([8]; Mus musculus, B16-F10, 3H-leucine incorporation, 4 hours + 60 min)?
A: 0.06 µg/mL

Q: What about the “potency on protein synthesis relative to that on RNA synthesis in terms of IC50 value” ([8]; protein versus RNA synthesis) of the same compound?
A: over 100 times

Q: What about the solubility ([9]; in benzene and other organic solvents) of the same compound?
A: practically insoluble

Q: And the solubility ([9]; in dimethyl sulfoxide, dimethylformamide, methanol, ethanol, ethyl acetate and chloroform)?
A: readily soluble

Q: And the solubility ([9]; in water)?
A: practically insoluble

Q: What about the “potency (minimum effective dose) relative to mitomycin C” value ([10]; Q4D × 3, ip) of the same compound?
A: the same as that of mitomycin C

Q: What about the “chemotherapeutic index (ratio of optimal dose to minimum effective dose), intermittent versus consecutive dosing” value ([10]; Q4D × 3 versus QD × 9) of the same compound?
A: broader therapeutic range

Q: And the “maximum T/C value, intermittent versus consecutive dosing” value ([10]; Q4D × 3 versus QD × 9)?
A: better antitumor activity

Q: What about the T/C ([10]; 0.13 mg/kg/day ip) of the same compound?
A: 123%

Q: And the T/C ([10]; 0.25 mg/kg/day ip)?
A: 133%

Q: And the T/C ([10]; 0.5 mg/kg/day ip)?
A: 133%

Q: What about the T/C ([10]; 0.63 mg/kg/day (so in the source) ip) of the same compound?
A: 113%

Q: And the T/C ([10]; 1.0 mg/kg/day ip)?
A: 97%

Q: What about the T/C ([10]; 2.0 mg/kg/day ip) of the same compound?
A: Tox.

Q: What about the “inhibitory activity against experimental animal tumor systems” value (from here on “inhibitory activity”) [10] of the same compound?
A: exhibit inhibitory activity

Q: And the “antitumor efficacy against B16 melanoma, in words” value (“antitumor efficacy” below) [10]?
A: excellent therapeutic efficacy against B16 melanoma

Q: And the T/C ([11]; 0.25 mg/kg/day ip, Q3D × 3)?
A: 119%

Q: And the T/C ([11]; 1.0 mg/kg/day ip, Q3D × 3)?
A: 125%

Q: And the T/C ([11]; 2.0 mg/kg/day ip, Q3D × 3)?
A: 144%

Q: What about the T/C ([11]; 4.0 mg/kg/day ip, Q3D × 3) of the same compound?
A: Tox.

Q: And the “maximum T/C value” ([11]; L1210 leukemia, ip)?
A: 145%

Q: And the “antitumor activity against L1210 leukemia, in words” value ([11]; ip)?
A: moderate antitumor activity

Q: What about the “prolongation of lifespan in P388 leukemia-bearing mice” value [12] of the same compound?
A: no significant prolongation of lifespan

Q: For `C=C(C)CC(NC(=O)[C@H](COC(C)=O)NC(=O)CCCCC(C)C)C(=O)C1(COC(C)=O)CO1` (some centres unmarked) [Diacetyl-BU-3862T], which IC50 [1, 15] is on record?
A: 0.003 µg/mL (≈ 0.00622 µM)

Q: And the IC50 [4, 16]?
A: 0.017 µg/mL (≈ 0.0352 µM)

Q: What about the IC50 [5, 17] of the same compound?
A: 0.044 µg/mL (≈ 0.0912 µM)

Q: And the “biological activity, in words” value [13]?
A: retained the biological activity

Q: And the “cytotoxic potency relative to BU-3862T” value [14]?
A: approximately half those of BU-3862T

Q: What about the “minimum effective dose relative to the parent compound” value ([10]; Q4D × 3, ip) of the same compound?
A: approximately ten times less active than the parent compound

Q: And the “inhibitory activity” value [10]?
A: exhibit inhibitory activity

Q: And the “antitumor efficacy” value [10]?
A: significant anti-B16 melanoma activity

Q: For `CC(C)CCCCC(=O)N[C@@H](CO)C(=O)NC(CC(C)C)C(=O)C1(CO)CO1` (some centres unmarked) [Dihydro-BU-3862T], which IC50 [1, 15] is on record?
A: 0.0032 µg/mL (≈ 0.00799 µM)

Q: And the IC50 [4, 16]?
A: 0.013 µg/mL (≈ 0.0325 µM)

Q: And the IC50 [5, 17]?
A: 0.038 µg/mL (≈ 0.0949 µM)

Q: What about the “biological activity, in words” value [13] of the same compound?
A: retained the biological activity

Q: And the “cytotoxic potency relative to BU-3862T” value [14]?
A: approximately half those of BU-3862T

Q: What about the “minimum effective dose relative to the parent compound” value ([10]; Q4D × 3, ip) of the same compound?
A: approximately ten times less active than the parent compound

Q: What about the “inhibitory activity” value [10] of the same compound?
A: exhibit inhibitory activity

Q: What about the “antitumor efficacy” value [10] of the same compound?
A: significant anti-B16 melanoma activity

Q: Which results are given for `CO[C@@]12[C@H](COC(N)=O)C3=C(C(=O)C(C)=C(N)C3=O)N1C[C@@H]1N[C@@H]12` [Mitomycin C, reference compound]?
A: IC50 ([1]; B16-F10, 72 h): 0.5 µg/mL (≈ 1.5 µM); IC50 ([4]; HCT-116, 72 h): 0.8 µg/mL (≈ 2.39 µM); IC50 ([5]; 72 h): 1.2 µg/mL (≈ 3.59 µM); T/C ([11]; 0.25 mg/kg/day ip, QD × 3): 125%; T/C ([11]; 0.5 mg/kg/day ip, QD × 3): 131%; T/C ([11]; 1.0 mg/kg/day ip, QD × 3): 138%; T/C ([11]; 2.0 mg/kg/day ip, QD × 3): 163%

Q: Which IC50 [1, 15] does the source give for `CC(C)CCCCC(=O)N[C@@H](CO)C(=O)NC(CC(C)C)C(=O)C(CO)CO` (some centres unmarked) [Tetrahydro-BU-3862T] here?
A: 0.53 µg/mL (≈ 1.32 µM)

Q: What about the IC50 [4, 16] of the same compound?
A: > 1 µg/mL

Q: And the IC50 [5, 17]?
A: > 1 µg/mL

Q: And the “biological activity, in words” value [13]?
A: devoid of the activity

Q: And the “cytotoxic activity compared with BU-3862T, diacetyl and dihydro derivatives” value [14]?
A: significantly less active than the above compounds

Source: patent publication US4912133A, “BU-3862T antitumor antibiotic” (priority 1988, dated 1990)
